Source: PubChem BioAssay AID318 (DTP/NCI, 2004)
“And” between values parts separate entries of the source, which are not always exact repeats. Identical values can stand only once. Inconclusive results and toxic doses are left out.

Tested on: BDF1 mice, P815 leukemia ip, survival T/C
Assay: NCI In Vivo Anticancer Drug Screen. Data for tumor model P815 Mast Cell Leukemia (Ascitic) (intraperitoneal) in B6D2F1 (BDF1) mice
Conditions: higher = longer survival
Protocol: The antitumor activity of compounds was measured in mice bearing transplantable tumors. Survival or tumor size were measured and the results are expressed as the measurement made in the treated group (T) divided by the measurement made in the vehicle treated control group (C). The tumor model used in this assay is P815 Mast Cell Leukemia (Ascitic) (intraperitoneal) in B6D2F1 (BDF1) mice

[1] = endpoint: survival time, mean or median, dose: 10.0 mg/kg/injection, schedule: Q01DX010 (ip), vehicle: saline
[2] = endpoint: survival time, mean or median, dose: 20.0 mg/kg/injection, schedule: Q01DX010 (ip), vehicle: saline
[3] = endpoint: survival time, mean or median, dose: 40.0 mg/kg/injection, schedule: Q01DX010 (ip), vehicle: saline
[4] = endpoint: survival time, mean or median, dose: 3.13 mg/kg/injection, schedule: Q01DX010 (ip), vehicle: saline
[5] = endpoint: survival time, mean or median, dose: 6.25 mg/kg/injection, schedule: Q01DX010 (ip), vehicle: saline
[6] = endpoint: survival time, mean or median, dose: 12.5 mg/kg/injection, schedule: Q01DX010 (ip), vehicle: saline
[7] = endpoint: survival time, mean or median, dose: 25.0 mg/kg/injection, schedule: Q01DX010 (ip), vehicle: saline

## CS(=O)(=O)OCCN(CCOS(C)(=O)=O)c1ccc(N=O)cc1
endpoint: survival time, mean or median, dose: 1.0 mg/kg/injection, schedule: Q01DX010 (ip), vehicle: saline
  T/C: 161 % of control
endpoint: survival time, mean or median, dose: 2.0 mg/kg/injection, schedule: Q01DX010 (ip), vehicle: saline
  T/C: 115 % of control
endpoint: survival time, mean or median, dose: 4.0 mg/kg/injection, schedule: Q01DX010 (ip), vehicle: saline
  T/C: 100 % of control

## O=C(Nc1ccc(C2=NCCN2)cc1)c1ccc(C(=O)Nc2ccc(C3=NCCN3)cc2)c([N+](=O)[O-])c1
endpoint: survival time, mean or median, dose: 6.0 mg/kg/injection, schedule: Q01DX010 (ip), vehicle: saline
  T/C: 171 % of control
endpoint: survival time, mean or median, dose: 8.0 mg/kg/injection, schedule: Q01DX010 (ip), vehicle: saline
  T/C: 284 % of control
endpoint: survival time, mean or median, dose: 12.0 mg/kg/injection, schedule: Q01DX010 (ip), vehicle: saline
  T/C: 92 % of control

## CN(C)c1ccc(/C=C/c2ccnc3ccccc23)cc1
endpoint: survival time, mean or median, dose: 5.0 mg/kg/injection, schedule: Q01DX010 (ip), vehicle: saline
  T/C: 100 % of control
[1]
  T/C: 88 % of control and 94 % of control
[2]
  T/C: 88 % of control and 100 % of control
[3]
  T/C: 100 % of control

## N=[N+]=CC(=O)OCC(N)C(=O)O (configuration not stated)
[4]
  T/C: 110 % of control and 111 % of control
[5]
  T/C: 118 % of control and 119 % of control
[6]
  T/C: 100 % of control and 123 % of control

## CN(Cc1cnc2nc(N)nc(N)c2n1)c1c(Cl)cc(C(=O)NC(CCC(=O)O)C(=O)O)cc1Cl (configuration not stated)
endpoint: survival time, mean or median, dose: 5.0 mg/kg/injection, schedule: Q01DX015 (ip), vehicle: carboxymethylcellulose (CMC)
  T/C: 150 % of control
endpoint: survival time, mean or median, dose: 10.0 mg/kg/injection, schedule: Q01DX015 (ip), vehicle: carboxymethylcellulose (CMC)
  T/C: 164 % of control
endpoint: survival time, mean or median, dose: 13.2 mg/kg/injection, schedule: Q01DX015 (ip), vehicle: carboxymethylcellulose (CMC)
  T/C: 166 % of control
endpoint: survival time, mean or median, dose: 20.0 mg/kg/injection, schedule: Q01DX015 (ip), vehicle: carboxymethylcellulose (CMC)
  T/C: 164 % of control
endpoint: survival time, mean or median, dose: 25.0 mg/kg/injection, schedule: Q01DX015 (ip), vehicle: carboxymethylcellulose (CMC)
  T/C: 190 % of control
endpoint: survival time, mean or median, dose: 30.0 mg/kg/injection, schedule: Q01DX015 (ip), vehicle: carboxymethylcellulose (CMC)
  T/C: 181 % of control
endpoint: survival time, mean or median, dose: 45.0 mg/kg/injection, schedule: Q01DX015 (ip), vehicle: carboxymethylcellulose (CMC)
  T/C: 179 % of control
endpoint: survival time, mean or median, dose: 67.5 mg/kg/injection, schedule: Q01DX015 (ip), vehicle: carboxymethylcellulose (CMC)
  T/C: 164 % of control
endpoint: survival time, mean or median, dose: 100.0 mg/kg/injection, schedule: Q01DX015 (ip), vehicle: carboxymethylcellulose (CMC)
  T/C: 121 % of control

## CC(C)CNS(=O)(=O)c1ncnc2nc[nH]c12
endpoint: survival time, mean or median, dose: 37.5 mg/kg/injection, schedule: Q01DX015 (ip), vehicle: carboxymethylcellulose (CMC)
  T/C: 97 % of control

## CCCNc1ncnc2[nH]ncc12
[4]
  T/C: 95 % of control and 104 % of control
[5]
  T/C: 100 % of control and 116 % of control
[6]
  T/C: 95 % of control and 100 % of control
[7]
  T/C: 95 % of control

## Cn1c(N)nc2nc[nH]c2c1=S
[1]
  T/C: 106 % of control
[2]
  T/C: 100 % of control and 111 % of control
[3]
  T/C: 100 % of control
endpoint: survival time, mean or median, dose: 160.0 mg/kg/injection, schedule: Q01DX010 (ip), vehicle: saline
  T/C: 100 % of control

## NOCc1ccsn1
endpoint: median survival time, dose: 15.0 mg/kg/injection, schedule: Q01DX010 (ip), vehicle: saline sonified
  T/C: 100 % of control
endpoint: median survival time, dose: 30.0 mg/kg/injection, schedule: Q01DX010 (ip), vehicle: saline sonified
  T/C: 100 % of control
endpoint: median survival time, dose: 60.0 mg/kg/injection, schedule: Q01DX010 (ip), vehicle: saline sonified
  T/C: 93 % of control

## CS(=O)(=O)OCCCCOS(C)(=O)=O
[5]
  T/C: 104 % of control and 118 % of control
[6]
  T/C: 86 % of control
[7]
  T/C: 86 % of control and 95 % of control
endpoint: survival time, mean or median, dose: 50.0 mg/kg/injection, schedule: Q01DX010 (ip), vehicle: saline
  T/C: 86 % of control and 95 % of control

## O=C1CCC(N2C(=O)c3ccccc3C2=O)C(=O)N1 (configuration not stated)
endpoint: survival time, mean or median, dose: 31.3 mg/kg/injection, schedule: Q01DX010 (ip), vehicle: saline
  T/C: 104 % of control
endpoint: survival time, mean or median, dose: 62.5 mg/kg/injection, schedule: Q01DX010 (ip), vehicle: saline
  T/C: 100 % of control
endpoint: survival time, mean or median, dose: 125.0 mg/kg/injection, schedule: Q01DX010 (ip), vehicle: saline
  T/C: 96 % of control
endpoint: survival time, mean or median, dose: 250.0 mg/kg/injection, schedule: Q01DX010 (ip), vehicle: saline
  T/C: 96 % of control
